Reference: article PMC10866072, “Design, synthesis, molecular modelling and biological evaluation of novel 6-amino-5-cyano-2-thiopyrimidine derivatives as potent anticancer agents against leukemia and apoptotic inducers” (Journal of Enzyme Inhibition and Medicinal Chemistry, 2024)

How the values were obtained:
[1] = system: caspase 3 level in leukaemia SR cells; assay: Caspase 3 ELISA; assay type: cell-based, human
Protocol: (§1) One of the most significant downstream caspases, Caspase-3, is referred to as an effector caspase[94]^,[95]. For further analysis, the effect of compound 1c on caspase 3 enzyme level was measured using ELISA kit (Invitrogen, Catalog # KHO1091) according to the manufacturer’s instructions. Briefly, 100 µl of the standard diluent buffer to the zero standard wells. Additionally, 100 µl of standards and controls or diluted samples were added to the appropriate microtiter wells, then wells were covered with plate cover and incubated for 2 h at R.T. Afterwards, wells were aspirated gently, washed with washing buffer 4 times. Furthermore, 100 µl of caspase 3 detection antibody was added into each well except the blank wells, and the plate was covered and incubated for 1 h at R.T. Then, the aspiration and washing steps were repeated again. Finally, 100 µl of the stabilised chromogen solution were added, plate was incubated for 30 min at R.T., stop solution was used to stop the reaction and the developed colour was measured at wave length 450 nm using plat ELISA reader.

[2] = system: caspase 3 level in HL60 cells; assay: Caspase 3 ELISA; assay type: cell-based, human; conditions: HL 60 cells
Protocol: as §1

K-562 = assay type: cell-based
NCI-H226 = assay type: cell-based
HOP-62 = assay type: cell-based
OVCAR-3 = assay type: cell-based
MALME-3M = assay type: cell-based
SF-295 = assay type: cell-based
OVCAR-4 = assay type: cell-based
U251 = assay type: cell-based
HL-60(TB) = assay type: cell-based
EKVX = assay type: cell-based
PC-3 = assay type: cell-based
MDA-MB-231/ATCC = assay type: cell-based
SF-268 = assay type: cell-based
SK-MEL-2 = assay type: cell-based
PI3Kα = target: T1, PI3Kα (Homo sapiens, UniProt P42336); assay: PI3 Kinase Activity/Inhibitor Assay Kit; assay type: biochemical; conditions: mean of two independent replicates ± SD
T1 construct: purchased Millipore Corporation 17-493 (assay kit)
Protocol: (§3) In vitro PI3 kinases inhibitory activity assay
(§4) All buffers, working standards and samples were prepared.
(§5) A total of 5 μl/well 5X kinase reaction buffer was added following the addition of the substrate, then distilled water was added to fill up to 25 μl. After incubation for 1 h at room temperature, 25 μl of biotinylated PIP3/EDTA working solution was added to all wells except the buffer control. Instead, 25 μl tris-buffered saline (TBS) was added to the buffer control wells. A general receptor phosphoinsitides -1 working solution was added to all wells then, was incubated for 1 h at room temperature. After incubation, all wells were washed with 200 μl 1X TBS -Tween followed by addition of 50 μl (horseradish peroxide as econjugated streptavidin) SA -HRP then were incubated for 1 h at room temperature. All wells were washed using 100 μl 1X TBS -Tween and TBS followed by addition of 100 μl of substrate 3,3’,5,5’-tetramethylbenzidine and kept in dark for 5–20 min.

leukaemia SR cells = assay: Cell cycle analysis (propidium iodide, flow cytometry); assay type: cell-based, human; conditions: 48 h treatment
Protocol: (§2) Compound 1c was selected as a potent candidate, its effect on cell cycle phases of HL60 and leukaemia SR cells was investigated using propidium iodide staining and flow cytometric analysis according to the cell cycle kit (Abcam ®, ab139418-)[90]^,[91]^. Briefly, HL60 and leukaemia SR cells were cultured under optimum conditions. Afterwards, cells were treated by compound 1c for 48 h. Then, they were harvested, washed with PBS, and cell fixation was performed using ethanol on ice. Additionally, cells were pelleted at 500 xg for 5 min and supernatant was gently aspirated. Furthermore, fixed cells were washed by phosphate-buffered saline (PBS) and resuspended in 200 µl 1 x propidium iodide + RNAse staining solution and incubated in dark for 30 min. Finally, stained cells were tested by flow cytometer using FACSCalibur (Becton Dickinson Biosciences, CA, USA). Finally, Cell Quest software (Becton Dickinson Biosciences) was used to determine cell cycle distribution.

HL60 cells = assay: as above; assay type: cell-based, human; conditions: HL60, 48 h treatment
Protocol: as §2

SN12C = assay type: cell-based, human; conditions: Homo sapiens, one dose 10^-5 M, 48 h
RXF 393 = assay type: cell-based; conditions: five-dose
SNB-19 = assay type: cell-based
PI3Kβ = target: T2, PI3Kβ (Homo sapiens, UniProt P42338); assay: PI3 Kinase Activity/Inhibitor Assay Kit; assay type: biochemical; conditions: mean of two independent replicates ± SD
T2 construct: purchased Millipore Corporation 17-493 (assay kit)
Protocol: as §3, §4, §5

IGROV1 = assay type: cell-based
[3] = Homo sapiens, one dose 10^-5 M, 48 h
[4] = Homo sapiens, five-dose, read-out: LC50 (the source's name)
[5] = Homo sapiens, one dose 10^-5 M, 48 h, read-out: % growth

T2 sequence (P42338 whole entry, species assumed): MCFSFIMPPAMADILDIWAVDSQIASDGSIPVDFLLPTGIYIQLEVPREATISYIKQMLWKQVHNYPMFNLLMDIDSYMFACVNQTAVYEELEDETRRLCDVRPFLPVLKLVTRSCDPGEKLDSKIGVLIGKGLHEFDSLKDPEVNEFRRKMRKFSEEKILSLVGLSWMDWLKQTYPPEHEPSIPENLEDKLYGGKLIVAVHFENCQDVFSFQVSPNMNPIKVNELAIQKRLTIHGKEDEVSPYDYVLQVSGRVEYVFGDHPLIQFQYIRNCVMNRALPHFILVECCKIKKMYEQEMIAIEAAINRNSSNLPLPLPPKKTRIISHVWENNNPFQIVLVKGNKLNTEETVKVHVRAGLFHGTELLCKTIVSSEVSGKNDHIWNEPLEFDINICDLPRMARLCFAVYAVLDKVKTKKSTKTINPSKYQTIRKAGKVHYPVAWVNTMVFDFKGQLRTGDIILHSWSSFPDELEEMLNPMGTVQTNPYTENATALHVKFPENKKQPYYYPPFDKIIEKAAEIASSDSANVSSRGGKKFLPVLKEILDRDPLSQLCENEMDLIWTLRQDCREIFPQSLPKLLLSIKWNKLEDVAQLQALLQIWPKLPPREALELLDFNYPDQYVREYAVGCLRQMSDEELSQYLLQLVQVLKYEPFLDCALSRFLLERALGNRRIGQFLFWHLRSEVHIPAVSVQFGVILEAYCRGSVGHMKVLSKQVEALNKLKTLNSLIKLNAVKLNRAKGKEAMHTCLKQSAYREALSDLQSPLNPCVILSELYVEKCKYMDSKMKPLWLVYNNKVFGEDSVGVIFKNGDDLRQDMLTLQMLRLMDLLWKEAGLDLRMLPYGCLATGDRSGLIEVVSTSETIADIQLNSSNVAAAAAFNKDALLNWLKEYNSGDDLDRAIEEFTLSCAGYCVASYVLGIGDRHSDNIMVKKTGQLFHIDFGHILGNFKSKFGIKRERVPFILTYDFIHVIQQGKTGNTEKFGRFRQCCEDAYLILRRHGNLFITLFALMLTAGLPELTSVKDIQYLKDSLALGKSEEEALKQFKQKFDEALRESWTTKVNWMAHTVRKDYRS
T2 sequence (P27986 whole entry partner, species assumed): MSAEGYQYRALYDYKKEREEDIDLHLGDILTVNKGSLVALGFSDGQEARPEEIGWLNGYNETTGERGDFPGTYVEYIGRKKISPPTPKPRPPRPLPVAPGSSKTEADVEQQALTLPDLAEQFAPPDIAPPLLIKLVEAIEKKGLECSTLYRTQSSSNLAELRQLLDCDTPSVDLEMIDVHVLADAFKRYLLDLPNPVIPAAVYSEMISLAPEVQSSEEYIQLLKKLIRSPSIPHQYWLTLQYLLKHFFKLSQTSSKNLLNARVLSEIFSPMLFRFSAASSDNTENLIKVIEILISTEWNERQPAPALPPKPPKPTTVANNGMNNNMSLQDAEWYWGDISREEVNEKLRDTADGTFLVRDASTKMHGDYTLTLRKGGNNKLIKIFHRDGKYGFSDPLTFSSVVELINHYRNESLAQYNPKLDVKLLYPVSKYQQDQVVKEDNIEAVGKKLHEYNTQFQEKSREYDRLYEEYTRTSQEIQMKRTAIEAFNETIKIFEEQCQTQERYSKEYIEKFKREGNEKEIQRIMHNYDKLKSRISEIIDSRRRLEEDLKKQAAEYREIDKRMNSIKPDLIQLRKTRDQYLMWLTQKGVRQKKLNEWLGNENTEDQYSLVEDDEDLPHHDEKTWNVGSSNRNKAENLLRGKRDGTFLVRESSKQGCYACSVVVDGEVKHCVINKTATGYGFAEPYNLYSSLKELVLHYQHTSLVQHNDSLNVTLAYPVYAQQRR
T1 sequence (P42336 whole entry, species assumed): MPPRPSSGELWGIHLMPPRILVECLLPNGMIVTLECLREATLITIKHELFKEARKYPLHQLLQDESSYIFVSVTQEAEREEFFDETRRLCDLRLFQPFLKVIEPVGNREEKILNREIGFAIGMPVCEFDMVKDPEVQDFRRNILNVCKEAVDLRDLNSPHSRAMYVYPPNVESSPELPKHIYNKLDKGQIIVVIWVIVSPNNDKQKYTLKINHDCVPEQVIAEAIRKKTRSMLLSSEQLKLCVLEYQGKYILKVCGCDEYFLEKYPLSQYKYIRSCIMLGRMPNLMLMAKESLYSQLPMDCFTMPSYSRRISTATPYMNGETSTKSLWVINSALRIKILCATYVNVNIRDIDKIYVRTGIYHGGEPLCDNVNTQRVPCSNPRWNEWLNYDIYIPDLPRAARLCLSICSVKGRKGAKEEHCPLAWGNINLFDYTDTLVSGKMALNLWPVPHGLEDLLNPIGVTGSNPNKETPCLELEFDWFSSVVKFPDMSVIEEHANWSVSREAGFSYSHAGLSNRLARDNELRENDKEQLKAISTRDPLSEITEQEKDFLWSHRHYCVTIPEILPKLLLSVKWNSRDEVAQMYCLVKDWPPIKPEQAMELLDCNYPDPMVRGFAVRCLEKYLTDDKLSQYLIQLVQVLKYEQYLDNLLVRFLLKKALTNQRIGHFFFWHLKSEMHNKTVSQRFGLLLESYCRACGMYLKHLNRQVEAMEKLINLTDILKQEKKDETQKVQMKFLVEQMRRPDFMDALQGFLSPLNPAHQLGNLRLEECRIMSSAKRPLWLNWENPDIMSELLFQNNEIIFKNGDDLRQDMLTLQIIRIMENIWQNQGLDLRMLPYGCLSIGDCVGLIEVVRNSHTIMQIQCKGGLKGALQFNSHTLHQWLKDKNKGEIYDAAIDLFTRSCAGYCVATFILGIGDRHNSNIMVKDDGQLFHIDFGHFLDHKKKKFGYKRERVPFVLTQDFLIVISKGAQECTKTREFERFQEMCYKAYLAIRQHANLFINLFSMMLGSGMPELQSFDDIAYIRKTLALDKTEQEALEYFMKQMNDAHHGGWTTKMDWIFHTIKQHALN
T1 sequence (P27986 whole entry partner, species assumed): as the sequence (P27986 whole entry partner, species assumed) above

N#Cc1c(N)nc(S)nc1-c1ccc(Cl)cc1Cl [Compound 1c, 4-Amino-6–(2,4-dichlorophenyl)-2-mercaptopyrimidine-5-carbonitrile]
caspase 3 level increase vs untreated control [1]: 3.4 folds
caspase 3 level increase vs untreated control [2]: 5.6 folds
GI50 (K-562; Homo sapiens, K562, five-dose): 0.14 µM
CC50 (K-562; Homo sapiens, K562, five-dose, read-out: LC50 (the source's name)): > 100 µM
% growth at 10 µM (K-562; Homo sapiens, K562, one dose 10^-5 M, 48 h): 36.9%
TGI (K-562; five-dose): >100 µM
GI50 (NCI-H226; Homo sapiens, five-dose): 16.5 µM
LC50 (concentration killing 50% of tumour cells) (NCI-H226; Homo sapiens, five-dose): 82 µM
% growth at 10 µM (NCI-H226; [3]): 64.4%
TGI (NCI-H226; five-dose): 36.80 µM
GI50 (HOP-62; Homo sapiens, five-dose): 18.2 µM
LC50 (concentration killing 50% of cells) (HOP-62; Homo sapiens, five-dose): 88.6 µM
% growth at 10 µM (HOP-62; [3]): 81.3%
TGI (HOP-62; five-dose): 40.20 µM
GI50 (OVCAR-3; Homo sapiens, five-dose): 18.1 µM
CC50 (OVCAR-3; [4]): > 100 µM
% growth at 10 µM (OVCAR-3; [3]): 17.1%
TGI (OVCAR-3; five-dose): 47.60 µM
GI50 (MALME-3M; Homo sapiens, five-dose): 15.3 µM
CC50 (MALME-3M; [4]): 69.7 µM
% growth at 10 µM (MALME-3M; [3]): 4.96%
TGI (MALME-3M; five-dose): 32.70 µM
GI50 (SF-295; Homo sapiens, five-dose): 10.4 µM
CC50 (SF-295; [4]): 49 µM
% cell growth at 10 µM (SF-295; [3]): 78.1%
TGI (SF-295; five-dose): 22.60 µM
GI50 (OVCAR-4; Homo sapiens, five-dose): 32 µM
CC50 (OVCAR-4; [4]): > 100 µM
% growth at 10 µM (OVCAR-4; [3]): 81.2%
TGI (OVCAR-4; five-dose): >100 µM
GI50 (U251; Homo sapiens, U-251, five-dose): 13.4 µM
CC50 (U251; Homo sapiens, U-251, five-dose, read-out: LC50 (the source's name)): 68.9 µM
% growth at 10 µM (U251; Homo sapiens, U-251, one dose 10^-5 M, 48 h): 38.8%
TGI (U251; five-dose): 30.40 µM
GI50 (HL-60(TB); Homo sapiens, five-dose): 0.08 µM
CC50 (HL-60(TB); [4]): > 100 µM
% growth at 10 µM (HL-60(TB); [3]): 5.3%
TGI (HL-60(TB); five-dose): 1.82 µM
GI50 (EKVX; Homo sapiens, five-dose): 14.3 µM
LC50 (EKVX; Homo sapiens, five-dose): 62.6 µM
% cell growth at 10 µM (EKVX; [3]): 98.6%
TGI (EKVX; five-dose): 29.90 µM
GI50 (PC-3; Homo sapiens, five-dose): 11.1 µM
CC50 (PC-3; [4]): > 100 µM
percent cell growth at 10 µM (PC-3; [3]): 49.8%
TGI (PC-3; five-dose): 48.20 µM
GI50 (MDA-MB-231/ATCC; Homo sapiens, five-dose): 13.1 µM
LC50 (MDA-MB-231/ATCC; Homo sapiens, five-dose): 58.1 µM
% growth at 10 µM (MDA-MB-231/ATCC; [3]): 51.9%
TGI (MDA-MB-231/ATCC; five-dose): 27.60 µM
GI50 (SF-268; Homo sapiens, five-dose): 18.1 µM
CC50 (SF-268; [4]): > 100 µM
activity at 10 µM (SF-268; [5]): 51%
TGI (SF-268; five-dose): 52.70 µM
GI50 (SK-MEL-2; Homo sapiens, five-dose): 17.5 µM
LC50 (SK-MEL-2; Homo sapiens, five-dose): 66.8 µM
% growth at 10 µM (SK-MEL-2; [3]): 98.6%
TGI (SK-MEL-2; five-dose): 34.20 µM
IC50 (PI3Kα): 0.88 ± 0.005 µM
% cells in G1 (%DIP G1) (leukaemia SR cells): 55.22%
% cells in S phase (leukaemia SR cells): 31.89%
% cells in G0/G1 (%DIP G1) (HL60 cells): 57.37%
% cells in S phase (HL60 cells): 33.07%
% growth at 10 µM (SN12C): 62.1%
GI50 (RXF 393; Homo sapiens): 12.7 µM
CC50 (RXF 393; Homo sapiens, read-out: LC50 (the source's name)): 52.2 µM
TGI (RXF 393): 25.70 µM
GI50 (SNB-19; Homo sapiens, five-dose): 17 µM
CC50 (SNB-19; [4]): > 100 µM
activity at 10 µM (SNB-19; [5]): 75.4%
TGI (SNB-19; five-dose): 50.00 µM
IC50 (PI3Kβ): 0.55 ± 0.002 µM
GI50 (IGROV1; Homo sapiens, IGROV-1, five-dose): 19.2 µM
CC50 (IGROV1; Homo sapiens, IGROV-1, five-dose, read-out: LC50 (the source's name)): 87.6 µM
activity at 10 µM (IGROV1; Homo sapiens, IGROV-1, one dose 10^-5 M, 48 h, read-out: % growth): 65.7%
TGI (IGROV1; five-dose): 41.00 µM
